From patent US20140135272A1, “NOVEL ZINC FINGER-LIKE PEPTIDE COMPOSITIONS AS POTENT AGENTS IN CANCER PREVENTION AND TREATMENT” (priority 2011, published 2014)
Residue numbers refer to the chain shown, from its start. “Also recorded” adds a separate entry of the source. Square brackets hold non-standard residues; d marks the D form. Ends that are not written are not given here. pS = N[C@@H](COP(=O)(O)O)C(=O)O

What was measured:
Type in all cases: in vivo, nude mice
BCC cells [1] = assay: Example 2: peptide pre-injection plus boost injection, BCC cell inoculation, tumor volumes; conditions: peptide 2 mM, 100 μl i.v. per week for 3 weeks before BCC inoculation; boost per week for 3 weeks 2 months later; vs H2O control
Description: (§1) In the following examples, 8-week nude mice were used as host subjects to perform in vivo experiments. The nude mice were placed in room temperature and suitable humidity, and supplied with sterile water and standard food for 2 consecutive weeks before performing experiments. Then, the nude mice were injected with zinc finger-like peptide and tumor cells. The detailed processes for the experiments are described as follows.
(§2) First, manually synthesized zinc finger-like peptide (Genemed Synthesis Inc., San Antonio, Tex., USA) was resuspended in degassed purified water to obtain 1-5 mM of zinc finger-like peptide solution (100 μl). Herein, the solution for suspending the zinc finger-like peptide is not particularly limited. Preferably, the zinc finger-like peptide is resuspended in degassed purified water, in order to prevent the self-polymerization of the zinc finger-like peptide and loss its ability to inhibit tumor cell growth.
(§3) In the present experimental group, zinc finger-like peptide with sequence shown in SEQ ID NO: 1 was injected into nude mice.
Nude mice were injected with an intravenous injection of peptide (2 mM, 100 μl PBS) via tail veins per week for 3 consecutive weeks, followed by inoculating BCC cells (2 million cells/100 μl PBS) at both the right and left flanks. 2 months later, boost injection of peptide was carried out per week for 3 consecutive weeks. […]

[2] = tested on: breast carcinoma MDA-MB-435s; assay: Example 8: breast carcinoma MDA-MB-435s inoculated first, peptide treatment from the 70th day, tumor volumes; conditions: peptide 2 mM, 100 μl per week for 4 weeks from the 70th day
Description: as §1, §2
In the present experimental group, zinc finger-like peptide with sequence shown in SEQ ID NO: 2 was injected subcutaneously into nude mice.
Nude mice received an injection of breast carcinoma MDA-MB-435s (2 million cells/100 μl PBS) […] at both the right and left flanks on the […] day, followed by injecting peptide (2 mM, 100 μl) per week for 4 consecutive weeks from the 70th day. The tumor volumes (mm^3) were observed daily during the whole experiment.
The process of the present control group was the same as that of the experimental group, except that the zinc finger-like peptide of the experimental group was substituted with PBS buffer (100 μl) in the present control group.

[3] = tested on: basal cell carcinoma (BCC) cells; assay: Example 1: peptide pre-injection, then basal cell carcinoma (BCC) cell inoculation, tumor volumes; conditions: peptide 2 mM, 100 μl PBS i.v. tail vein per week for 3 weeks before BCC inoculation at both flanks; vs PBS control
Description: as §1, §2
Herein, zinc finger-like peptide with sequence shown in SEQ ID NO: 2 was injected into nude mice.
In particularly, nude mice were injected with an intravenous injection of peptide (2 mM, 100 μl phosphate-buffered saline or PBS) via tail veins per week for 3 consecutive weeks, followed by inoculating basal cell carcinoma (BCC) cells (2 million cells/100 μl PBS) at both the right and left flanks. […]

[4] = tested on: malignant melanoma B 16F10; assay: Example 4: peptide variants pre-injected, then malignant melanoma B16F10 inoculation, tumor volumes and death; conditions: peptide 2 mM, 100 μl i.v. per week for 2 weeks before B16F10 inoculation
Description: as §1, §2
Nude mice received an intravenous injection of peptide (2 mM, 100 μl) via tail veins per week for 2 consecutive weeks, followed by inoculating malignant melanoma B 16F10 (2 million cells/100 μl PBS) at both the right and left flanks. The tumor volumes (mm^3) were observed daily during the whole experiment.
as §3
In the present experimental group, zinc finger-like peptide with sequence shown in SEQ ID NO: 1, in which the fifth amino acid, serine was phosphorylated, and injected into nude mice.
In the present experimental group, zinc finger-like peptide with sequence shown in SEQ ID NO: 6 was injected into nude mice.
In the present experimental group, zinc finger-like peptide with sequence shown in SEQ ID NO: 6, in which the fourth amino acid serine was phosphorylated, and injected nude mice.
In the control group, H2O (100 μl) was injected into nude mice.

BCC cells [5] = assay: Example 5: expression plasmid injection, then BCC cell inoculation, tumor volumes; conditions: expression plasmid 100 μl via tail veins per week for 2 weeks before BCC inoculation; vs vector containing EGFP only
Description: as §1
The cDNA of zinc finger-like peptide was inserted into vector pCR3.1/CMV to form a zinc finger-like peptide expression plasmid, wherein the zinc finger-like peptide was connected to the c-terminal of EGFP.
In the present experimental group, the zinc finger-like peptide expression plasmid containing DNA sequence for expressing the zinc finger-like peptide (SEQ ID NO: 4) (100 μl) was injected into nude mice via tail veins per week for 2 consecutive weeks, to express zinc finger-like peptide. Then, BCC cells (2 million cells/100 μl medium) were inoculated into nude mice at both the right and left flanks. The tumor volumes (mm^3) were observed daily during the whole experiment.
The process of the present experimental group was the same as that of the experimental group 1, except that the DNA sequence shown in SEQ ID NO: 4 was substituted with DNA sequence shown in SEQ ID NO: 7. […]

Q: With “MSSRRSSGCKYCEQD [SEQ ID NO: 5, zinc finger-like peptide with serine mutation]” as the molecule, how does the “tumor growth (tumor volumes)” value (BCC cells [1]) read?
A: the therapeutic effect of the zinc finger-like peptide is decreased; also recorded: still has better treatment effect than H2O

Q: For “MSSRRSSSCKYCEQDFRAHTQKNAATPFLAN [SEQ ID NO: 2, zinc finger-like peptide, manually synthesized]”, which “day from which tumor volumes were significantly increased” value ([2]; MDA-MB-435s inoculated first) is on record?
A: 89 days

Q: What about the maximum tumor volumes ([2]; observed on the 100th day) of the same molecule?
A: 1000 mm^3

Q: What about the “tumor volumes reduced to” value ([2]; on the 113th day, after the maximum) of the same molecule?
A: 50%

Q: What about the “tumor cell growth terminated compared to the control group” value ([2]; vs PBS control group) of the same molecule?
A: 75%

Q: What about the “tumor growth (tumor volumes)” value [3] of the same molecule?
A: inhibited the growth of skin cancer cell on nude mice

Q: “RSSSCK [SEQ ID NO: 6, zinc finger-like peptide, called cysteine deletion]” was tested. Which “day on which the nude mice died” value [4] did it give?
A: 31 days

Q: Which “day on which the nude mice died” value [4] does the source give for “SEQ ID NO: 1, in which the fifth amino acid, serine was phosphorylated: SEQ ID NO: 1 (RRSSSCK) with the fifth amino acid, serine, phosphorylated (RRSS[pS]CK)” here?
A: 35 days

Q: For “SEQ ID NO: 6, in which the fourth amino acid serine was phosphorylated: SEQ ID NO: 6 (RSSSCK) with the fourth amino acid serine phosphorylated (RSS[pS]CK)”, which “day on which the nude mice died” value [4] is on record?
A: 35 days

B1: atgagcagca gaaggtcgtc ttcttgtaaa tattgtgaac aggacttccg agcacacaca cagaagaatg cggccacacc cttcctagcc aac (nucleic acid)
chain: ATGAGCAGCAGAAGGTCGTCTTCTTGTAAATATTGTGAACAGGACTTCCGAGCACACACACAGAAGAATGCGGCCACACCCTTCCTAGCCAAC
modifications: expressed or natural sequence
Q: For B1, which “tumor growth (tumor volumes)” value (BCC cells [5]) is on record?
A: the growth of tumor cells can be inhibited and the volume thereof can be reduced

B2: atgagcagca gaaggtcgtc tggctgtaaa tattgtgaac aggacttccg agcacacaca cagaagaatg cggccacacc cttcctagcc aac (nucleic acid)
chain: B1 chain with T22G, C23G, T24C
modifications: chemistry not given here
Q: How did the “tumor growth (tumor volumes)” value (BCC cells [5]) turn out when B2 was run?
A: can slightly inhibit the growth of the tumor cells
